The source of these data is patent publication US20200079757A1, “COMPOUNDS FOR THE TREATMENT OF RESPIRATORY DISEASES” (THE UNIVERSITY OF MELBOURNE, priority 2017, published 2020).

The test system of one experiment is TGFβ-activated A549. The experiment can be described thus: TGFβ-activated A549 gene expression (modulation of mRNA level, RT-qPCR). The class given is cell-based. The conditions noted are these: for IC50: Homo sapiens, A549, agent 0.1-10 μM before TGF-β (100 pM) 24 hr. On the procedure: The selected potential candidate was also assayed in A549 alveolar epithelial cells, a commonly-used cell model for epithelial-mesenchymal transition (EMT) investigation. The agents were added at the indicated concentrations 30 min prior to the addition of TGF-β which was incubated for a further 24 hours. Then, the cellular RNA was harvested to measure the regulation of the EMT-associated genes and fibrogenic genes.
A549 alveolar epithelial cells (ATCC, Manasas, Va., USA) were cultured in DMEM containing 5% (v/v) FCS, 15 mM HEPES, 0.2% (v/v) sodium bicarbonate, 2 mM L-glutamine, 1% (v/v) non-essential amino acids, 1% (v/v) sodium pyruvate, 5 IU/mL penicillin and 50 μg/mL streptomycin as previously described (S. Salem, T. Harris, J. Mok Shiueh Lian, M. Yuen Sin Li, C. R. Keenan, M. J. Schuliga, and A. G. Stewart (2012). Transforming growth factor-p impairs glucocorticoid activity in the A549 lung adenocarcinoma cell line. Br J Pharmacol. 166: 2036-2048).
Prior to experimentation, BEAS-2B and A549 cells were incubated in serum-free DMEM containing 0.25% bovine serum albumin (BSA) and insulin-transferrin-selenium—containing supplement (Monomed A; CSL, Parkville, Melbourne, Australia). Where indicated, cells were treated with one of the series of synthesised compounds (0.3-10 μM) prior to exposure to 100 pM TGF-β1 (R&D Systems, Minneapolis, Minn.) or 300 pM bFGF (Promega, Madison, Wis.).
Total RNA was extracted from cultured cells using illustra RNAspin Mini RNA Isolation Kit (GE Healthcare). RNA extracts were reverse-transcribed into cDNA using High-Capacity RNA-to-cDNA Kit (Applied Biosystems). Real-time PCR was then performed using a QuantStudio 6 Flex Real-Time PCR System using iTaq Universal SYBR green supermix and the following thermal protocol: 50° C. (2 min), 95° C. (10 min), then 40 cycles of 95° C. (15 sec), 60° C. (1 min). The threshold cycle (CT) values determined for target genes were normalized against those obtained for 18S ribosomal RNA (18S rRNA), which was included as internal control. The generation of specific PCR products was confirmed by dissociation curve analysis.
EMT is a feature of the pathogenesis of fibrosis that is relevant to epithelial tumour metastases and fibrogenesis in organs such as heart, kidney liver and lung, and is known to contribute to idiopathic pulmonary fibrosis (IPF) as well as being thought to make a contribution to the fibrosis known to occur in asthma and COPD. […] The potencies of PF670462 and SS9-010 in modulating induction of CTGF are not statistically distinguishable. […] The potency of these two agents in regulating vimentin induction by TGF-β could not be assessed, as the concentration-response relationship for PF670462 could not be fitted. However, the effects of SS9-010 were significant at 3 μM, whereas PF670462 (3 μM) had no effect.
On the technique in general: In qPCR the cycle at which signal appears reflects the starting amount.

Experiment [1] has as its system TNF-stimulated BEAS-2B cells. The experiment can be described thus: TNF-α-induced IL-8 and CSF-2 (GM-CSF) mRNA and supernatant protein in BEAS-2B cells (RT-qPCR, ELISA). The experiment is classed as cell-based. The conditions noted are these: 1-10 μM 30 min prior to TNF-α 10 ng/ml 24 h, maximal at lowest concentration. On the procedure:
The primary assay for the activity of the novel CK1δ/ε inhibitors is the modulation of gene expression in the airway epithelial cell line, the BEAS-2B cells. The assay is conducted under several conditions. Generally, TGF-β or TNF-α is used to elicit fibrogenic or inflammatory genes, respectively. The agents are added at a concentration of 10 μM, or at the indicated concentrations for a period of 30 min prior to the addition of TGF-β/TNF-α which are incubated for a further 20 hours before the addition, in some experiments of the glucocorticoid, dexamethasone (Dex, 30 nM) for the final 4 hours of the experiment, prior to harvest of cellular RNA to measure by RT-qPCR the levels of mRNA of marker genes for inflammation and fibrogenesis. The inhaled corticosteroid (ICS), budesonide is also used in some experiments. Furthermore, the supernatants are harvested at the end of the incubation periods in selected experiments to measure the levels of CSF-2 or IL-8 by ELISA as described in (Tran et al. (2005) British Journal of Pharmacology, 145, 123-131). […] The threshold cycle (CT) values determined for target genes were normalized against those obtained for 18S ribosomal RNA (18S rRNA), which was included as internal control. […] RNA was extracted and measured by RT-qPCR. Pro-inflammatory cytokines in the supernatants were measured by ELISA. […]

Setting [2] is: read-out: -Log IC50 ± SEM (modulation of mRNA level), CTGF induction (converted).
Where [3] appears, read: read-out: -Log IC50 ± SEM (modulation of mRNA level), Col 1A induction (converted).
Where [4] appears, read: read-out: -Log IC50 ± SEM (modulation of mRNA level), E-Cadherin repression (converted).
Where [5] appears, read: read-out: -Log IC50 ± SEM (modulation of mRNA level), PAI-1 induction (converted).

Molecules are shown by their SMILES. Where two headings read alike, the source gives them in different places.

The IC50 is the concentration needed to halve the response being measured. With `Cl.Nc1nccc(-c2c(-c3ccc(F)cc3)ncn2C2CCCCC2)n1` [PF670462, 4-(1-Cyclohexyl-4-(4-fluorophenyl)-1H-imidazol-5-yl)pyrimidin-2-amine hydrochloride, reference compound], the “effect on vimentin induction by TGF-β” value in the experiment on TGFβ-activated A549 (A549, agent 3 μM) is reported as “no effect”. In addition, the IC50 in the experiment with TGFβ-activated A549 (setting [2]) is 1450 nM; with TGFβ-activated A549 (setting [3]) it was 3800 nM; with TGFβ-activated A549 (setting [4]), 8320 nM; in the experiment on TGFβ-activated A549 (setting [5]), 3890 nM. The “TNF-α-induced IL-8 expression and immunoreactive IL-8 in supernatant” value in experiment [1] was “active inhibitors”.
For `CNc1nccc(-c2c(-c3ccc(F)cc3)ncn2C2CCCCC2)n1` [SS9-010, 4-(1-Cyclohexyl-4-(4-fluorophenyl)-1H-imidazol-5-yl)-N-methylpyrimidin-2-amine], the IC50 in the experiment on TGFβ-activated A549 (setting [2]) is 447 nM; in the experiment with TGFβ-activated A549 (setting [3]) it was 447 nM; with TGFβ-activated A549 (setting [4]), 2140 nM; with TGFβ-activated A549 (setting [5]), 661 nM; in the experiment on TGFβ-activated A549 (read-out: -Log IC50 ± SEM (modulation of mRNA level), Vimentin induction (converted)) it was 3890 nM. The “TNF-α-induced IL-8 expression and immunoreactive IL-8 in supernatant” value in experiment [1] is listed as “active inhibitors”.
